According to patent US10202331B2, “Antifibrinolytic compounds” (THROMBOLYTICS, LLC, priority 2014, dated 2019):

Legend:
[1] = molecular target: Human Plasminogen (Homo sapiens, UniProt P00747); assay: Coupled in vitro fibrinolytic assay (fibrin clot lysis, absorbance at 405 nm); type: biochemical; conditions: for Potency TXA = 100: relative to TXA = 100
Excerpt: The principles and procedures for these assays are as follows. • a) The coupled enzyme reactions in these fibrinolytic assays The assays are constituted of four principal reactions. These are: • (a) The thrombin catalyzed conversion of fibrinogen to the insoluble fibrin clot. Soluble human fibrinogen is a constituent of these assays. The assays are initiated by the addition of human Thrombin, causing the known partial proteolysis of fibrinogen to generate fibrin, which polymerizes to yield an insoluble, opaque “clot”. This is not the same as a fibrin clot obtained physiologically, as it lacks numerous attributes of a physiological clot. […] It is known to bind with a very high affinity to insoluble polymerized fibrin, while it has a much weaker affinity for Fibrinogen. […] All constituents are prepared at appropriate higher stock concentrations from which aliquots are taken and mixed to a final volume of 400 μliters. Included ingredients and their final (assay) concentration are: […] The plates are placed in the plate reader sample compartment maintained at 37°. Assays are conducted with or without pre incubating the fibrinolytic inhibitors with the protein(s) of interest overnight. These two protocols are as follows: • (a) Experiments without pre-incubation: These assays are constituted as follows: […] The assay solutions are mixed & stirred, and the micro titer plate placed in the plate reader. Assays are initiated by delivering a solution (20 μliters) containing Thrombin and either Urokinase or TPA. […] Following pre incubation, the assay solutions are warmed to 37° in the plate reader, and the assays carried out as in (a), above, being initiated with the addition of Thrombin and TPA or Urokinase. The role of Antifibrinolytics in slowing clot dissolution is illustrated in the FIGURE, which illustrates the type of data obtained from the coupled Fribrinolysis Assays described above in Protocols 3(a) and 3(b). […] This represents the formation of fibrin in the assays. […] As a result, an exponential decay in the amount of fibrin present in the assays is observed. This process is illustrated above over a 10 to 30 minute period in control assays, in the absence of antifibrinolytic compounds. As a rough approximation, these can be considered as two sequential exponential processes—the first, formation of fibrin, or the clot, preceding the second—clot breakdown or the fibrinolytic process. A rough measure of the efficacy of fibrinolytic inhibitors, as determined in these coupled assays, is the half-life of the pseudo exponential decline in the optical density of the assay mixtures in the second portion of the reaction. A more rigorous measure of the effectiveness of the compounds to inhibit fibrinolysis, and, by inference, physiological thrombolytic processes, can be obtained by recording the observed fibrinolytic half-lives as a function of the fibrinolytic inhibitor concentration.

[2] = test system: Kringles; assay: Ability to substitute for EACA/TXA in binding to Kringles; conditions: as determined by the applicant
Excerpt: The D-configuration is preferred in the terminal amino acid in order to protect these dipeptides from peptidases.

[3] = Compounds Preincubated with Plasminogen and Fibrinogen
[4] = Compounds Preincubated with Plasminogen and Fibrinogen, relative to control without inhibitor
[5] = No Preincubation, fibrin half life relative to control without inhibitor

Sequence of Human Plasminogen (P00747 20-810 limits assumed): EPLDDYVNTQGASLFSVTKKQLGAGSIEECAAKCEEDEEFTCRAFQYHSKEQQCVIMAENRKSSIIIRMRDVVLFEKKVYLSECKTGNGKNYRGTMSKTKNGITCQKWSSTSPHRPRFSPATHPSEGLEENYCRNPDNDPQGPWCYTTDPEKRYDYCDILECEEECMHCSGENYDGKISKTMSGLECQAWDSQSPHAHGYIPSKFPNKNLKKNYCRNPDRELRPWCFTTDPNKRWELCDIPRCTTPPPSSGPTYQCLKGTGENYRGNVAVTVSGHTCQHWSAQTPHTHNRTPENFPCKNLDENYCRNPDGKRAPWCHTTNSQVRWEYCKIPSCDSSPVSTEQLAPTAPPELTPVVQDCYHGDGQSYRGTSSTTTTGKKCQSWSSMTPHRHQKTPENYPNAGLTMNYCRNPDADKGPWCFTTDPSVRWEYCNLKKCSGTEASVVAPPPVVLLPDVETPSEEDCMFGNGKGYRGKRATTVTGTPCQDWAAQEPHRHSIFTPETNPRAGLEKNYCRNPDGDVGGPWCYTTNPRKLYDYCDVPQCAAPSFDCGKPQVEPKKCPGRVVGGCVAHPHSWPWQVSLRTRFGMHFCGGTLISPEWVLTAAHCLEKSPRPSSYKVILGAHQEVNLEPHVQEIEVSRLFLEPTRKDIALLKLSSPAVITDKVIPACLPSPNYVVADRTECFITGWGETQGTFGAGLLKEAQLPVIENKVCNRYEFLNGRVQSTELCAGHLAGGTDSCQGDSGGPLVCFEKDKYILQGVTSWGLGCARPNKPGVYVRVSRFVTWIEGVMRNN

| Inhibition Percent [1, 3] [%] | Potency TXA = 100 [1, 3] | Percent Of Control [1, 4] [%] | Inhibition Percent ([1]; No Preincubation) [%] | Percent Of Control [1, 5] [%] | Potency TXA = 100 ([1]; No Preincubation) | ability to substitute for EACA/TXA [2] | SMILES | anti-fibrinolytic effect compared with ACA or TXA (in words) [1] |
| --- | --- | --- | --- | --- | --- | --- | --- | --- |
| 41.8 | 52 | 172 | 37.5 | 160 | 53 | – | NCCCCCC(=O)O [ACA, 6-aminohexanoic acid] | – |
| 88.5 | 264 | 870 | 70.0 | 333 | 111 | – | C[S+](C)CCCCCC(=O)O [ACA_S, 6-(S,S dimethylthio) Hexanoic acid sultane] | – |
| – | – | – | – | – | – | substitute for EACA/TXA | Cn1cncc1C[C@H](NC(=O)CCN)C(=O)O [Anserine] | – |

Further lines, the compound ahead of its results:

| SMILES | Inhibition Percent [1, 3] [%] | Potency TXA = 100 [1, 3] | Percent Of Control [1, 4] [%] | Inhibition Percent ([1]; No Preincubation) [%] | Percent Of Control [1, 5] [%] | Potency TXA = 100 ([1]; No Preincubation) | ability to substitute for EACA/TXA [2] | anti-fibrinolytic effect compared with ACA or TXA (in words) [1] |
| --- | --- | --- | --- | --- | --- | --- | --- | --- |
| NCCC(=O)N[C@@H](Cc1c[nH]cn1)C(=O)O [Carnosine, β-Alanyl histidine] | – | – | – | – | – | – | substitute for EACA/TXA | – |
| NC[C@H]1CC[C@H](C(=O)O)CC1 [TXA, trans-4-(aminomethyl)cyclohexanecarboxylic acid] | 69.7 | 100 | 329 | 66.6 | 300 | 100 | – | – |
| C[S+](C)C[C@H]1CC[C@H](C(=O)O)CC1.[Cl-] [TXA_S, trans-(4-dimethylthiomethyl) Cyclohexane-1-carboxylic acid sulfonium chloride] | 90.6 | 321 | – | 71.9 | 356 | 119 | – | functions as well as TXA in inhibiting fibrinolysis |
